In brackets after ≈: the same amount, converted by molar mass. Like-named read-outs stand apart in the source and are kept apart here.
Columns and labels:
S. pneumoniae Type III = assay: In vitro activity against fastidious bacteria; type: cell-based; conditions: Streptococcus pneumoniae; S. pneumoniae Type III; read-out: MIC
Source text: (§1) Table 5 contains comparative data for in vitro antibacterial activity against fastidious bacteria.

S. pneumoniae A15069 = assay: In vitro activity against fastidious bacteria; type: cell-based; conditions: Streptococcus pneumoniae; S. pneumoniae A15069; read-out: MIC
Source text: as §1

H. influenzae A22483 = assay: In vitro activity against fastidious bacteria; type: cell-based; conditions: Haemophilus influenzae
Source text: as §1

H. influenzae A22481 = assay: In vitro activity against fastidious bacteria; type: cell-based; conditions: Haemophilus influenzae, ampicillin-resistant (ABPC-R)
Source text: as §1

N. meningitidis A21487 = assay: In vitro activity against fastidious bacteria; type: cell-based; conditions: Neisseria meningitidis; N. meningitidis A21487; read-out: MIC
Source text: as §1

S. pyogenes A20065 = assay: In vitro activity against fastidious bacteria; type: cell-based; conditions: Streptococcus pyogenes; S. pyogenes A20065; read-out: MIC
Source text: as §1

S. pyogenes A20201 = assay: In vitro activity against fastidious bacteria; type: cell-based; conditions: Streptococcus pyogenes; S. pyogenes A20201; read-out: MIC
Source text: as §1

H. influenzae A21523 = assay: In vitro activity against fastidious bacteria; type: cell-based; conditions: Haemophilus influenzae; H. influenzae A21523; ampicillin-sensitive (ABPC-S); read-out: MIC
Source text: as §1

N. meningitidis A21495 = assay: In vitro activity against fastidious bacteria; type: cell-based; conditions: Neisseria meningitidis; N. meningitidis A21495; read-out: MIC
Source text: as §1

N. meningitidis A20049 = assay: In vitro activity against fastidious bacteria; type: cell-based; conditions: Neisseria meningitidis; N. meningitidis A20049; read-out: MIC
Source text: as §1

S. pyogenes s-23 = assay: In vitro activity against fastidious bacteria; type: cell-based; conditions: Streptococcus pyogenes, S23; S. pyogenes s-23; read-out: MIC
Source text: as §1

S. pneumoniae Type I = assay: In vitro activity against fastidious bacteria; type: cell-based; conditions: Streptococcus pneumoniae; S. pneumoniae Type I; read-out: MIC
Source text: as §1

N. meningitidis A21497 = assay: In vitro activity against fastidious bacteria; type: cell-based; conditions: Neisseria meningitidis; N. meningitidis A21497; read-out: MIC
Source text: as §1

S. pneumoniae A9585 = assay: In vitro activity against fastidious bacteria; type: cell-based; conditions: Streptococcus pneumoniae; S. pneumoniae A9585; read-out: MIC
Source text: as §1

N. meningitidis A20048 = assay: In vitro activity against fastidious bacteria; type: cell-based; conditions: Neisseria meningitidis; N. meningitidis A20048; read-out: MIC
Source text: as §1

S. pneumoniae Type II = assay: In vitro activity against fastidious bacteria; type: cell-based; conditions: Streptococcus pneumoniae; S. pneumoniae Type II; read-out: MIC
Source text: as §1

S. pneumoniae A20759 = assay: In vitro activity against fastidious bacteria; type: cell-based; conditions: Streptococcus pneumoniae; S. pneumoniae A20759; read-out: MIC
Source text: as §1

N. gonorrheae A15112 = assay: In vitro activity against fastidious bacteria; type: cell-based; conditions: N. gonorrheae A15112; read-out: MIC
Source text: as §1

H. influenzae A20193 = assay: In vitro activity against fastidious bacteria; type: cell-based; conditions: Haemophilus influenzae; H. influenzae A20193; ampicillin-sensitive (ABPC-S); read-out: MIC
Source text: as §1

N. gonorrheae A20143 = assay: In vitro activity against fastidious bacteria; type: cell-based; conditions: N. gonorrheae A20143; read-out: MIC
Source text: as §1

H. influenzae A9833 = assay: In vitro activity against fastidious bacteria; type: cell-based; conditions: Haemophilus influenzae; H. influenzae A9833; ampicillin-sensitive (ABPC-S); read-out: MIC
Source text: as §1

H. influenzae A9729 = assay: In vitro activity against fastidious bacteria; type: cell-based; conditions: Haemophilus influenzae; H. influenzae A9729; ampicillin-sensitive (ABPC-S); read-out: MIC
Source text: as §1

H. influenzae A22482 = assay: In vitro activity against fastidious bacteria; type: cell-based; conditions: Haemophilus influenzae
Source text: as §1

S. pyogenes A9604 = assay: In vitro activity against fastidious bacteria; type: cell-based; conditions: Streptococcus pyogenes; S. pyogenes A9604; read-out: MIC
Source text: as §1

H. influenzae A22491 = assay: In vitro activity against fastidious bacteria; type: cell-based; conditions: Haemophilus influenzae, ampicillin-resistant (ABPC-R)
Source text: as §1

S. pyogenes A15040 = assay: In vitro activity against fastidious bacteria; type: cell-based; conditions: Streptococcus pyogenes; S. pyogenes A15040; read-out: MIC
Source text: as §1

N. gonorrheae A20154 = assay: In vitro activity against fastidious bacteria; type: cell-based; conditions: N. gonorrheae A20154; read-out: MIC
Source text: as §1

H. influenzae A20177 = assay: In vitro activity against fastidious bacteria; type: cell-based; conditions: Haemophilus influenzae; H. influenzae A20177; ampicillin-sensitive (ABPC-S); read-out: MIC
Source text: as §1

fastidious bacteria = assay: In vitro antibacterial activity against fastidious bacteria (overall); type: cell-based
Source text: as §1

[1] = system: S. aureus Smith and E. coli Juhl; assay: Protective effect in mice infected with a lethal inoculum (overall); type: in vivo
Source text: (§2) The data in Table 2 are results of protective doses (PD50) for mice infected with a lethal inoculum of bacteria. Two different bacteria were employed in the studies, one a Gram-positive organism (S. aureus Smith) and the other a Gram-negative organism (E. coli Juhl). The PD50 is that dose which, when administered to a group of injected mice, results in 50% survival after five days. Normally untreated infected mice die within three days following injection of the lethal inoculum.

[2] = system: Gp-Ib organisms (Gram-positive staphylococci resistant to penicillin); assay: In vitro activity, agar dilution, group of five strains; type: cell-based
Source text: (§3) Each of these groups of organisms is constituted of five individual strains of microorganism. The Gp-Ia organisms are Gram-positive staphylococci which are sensitive to penicillin. The Gp-Ib organisms are Gram-positive staphylococci which are resistant to penicillin and produce penicillinase. The Gn-Ia organisms are Gram-negative bacteria which are sensitive to ampicillin and cephalothin. The Gn-Ib organisms are Gram-negative bacteria which are resistant to ampicillin and cephalothin.

[3] = system: Gp-Ia organisms (Gram-positive staphylococci sensitive to penicillin); assay: as above; type: cell-based
Source text: as §3

E. coli Juhl = assay: Protective dose for mice infected with lethal inoculum; type: in vivo; conditions: 50% survival after five days
Source text: as §2

SMILES	MIC (S. pneumoniae Type III) [µg/mL]	MIC (S. pneumoniae A15069) [µg/mL]	MIC (H. influenzae A22481) [µg/mL]	MIC (N. meningitidis A21487) [µg/mL]	MIC (S. pyogenes A20065) [µg/mL]	MIC (S. pyogenes A20201) [µg/mL]	MIC (H. influenzae A21523) [µg/mL]	MIC (N. meningitidis A21495) [µg/mL]	MIC (N. meningitidis A20049) [µg/mL]	MIC (S. pyogenes s-23) [µg/mL]	MIC (S. pneumoniae Type I) [µg/mL]	MIC (N. meningitidis A21497) [µg/mL]	MIC (S. pneumoniae A9585) [µg/mL]	MIC (N. meningitidis A20048) [µg/mL]	MIC (S. pneumoniae Type II) [µg/mL]	MIC (S. pneumoniae A20759) [µg/mL]	MIC (N. gonorrheae A15112) [µg/mL]	MIC (H. influenzae A20193) [µg/mL]	MIC (N. gonorrheae A20143) [µg/mL]	MIC (H. influenzae A9833) [µg/mL]	further results
C/C=C\C1=C(C(=O)O)N2C(=O)C(NC(=O)[C@H](N)c3ccc(O)cc3)[C@H]2SC1 (stereo partly drawn) [BMY-28100, 7-[D-2-amino-2-(4-hydroxyphenyl)acetamido]-3-[(Z)-1-propen-1-yl]-3-cephem-4-carboxylic acid]	0.2 (≈ 0.514 µM)	0.4 (≈ 1.03 µM)	0.8 (≈ 2.05 µM)	0.4 (≈ 1.03 µM)	0.05 (≈ 0.128 µM)	0.05 (≈ 0.128 µM)	0.8 (≈ 2.05 µM)	0.4 (≈ 1.03 µM)	0.4 (≈ 1.03 µM)	0.05 (≈ 0.128 µM)	0.1 (≈ 0.257 µM)	0.4 (≈ 1.03 µM)	0.1 (≈ 0.257 µM)	0.4 (≈ 1.03 µM)	0.1 (≈ 0.257 µM)	0.4 (≈ 1.03 µM)	0.8 (≈ 2.05 µM)	0.8 (≈ 2.05 µM)	0.8 (≈ 2.05 µM)	0.8 (≈ 2.05 µM)	MIC (H. influenzae A22483; H. influenzae A22483, ampicillin-sensitive (ABPC-S), read-out: MIC): 0.8 µg/mL (≈ 2.05 µM); MIC (H. influenzae A9729): 0.8 µg/mL (≈ 2.05 µM); MIC (H. influenzae A22482; H. influenzae A22482, ampicillin-sensitive (ABPC-S), read-out: MIC): 0.8 µg/mL (≈ 2.05 µM); MIC (S. pyogenes A9604): 0.05 µg/mL (≈ 0.128 µM); MIC (H. influenzae A22491): 0.8 µg/mL (≈ 2.05 µM); MIC (S. pyogenes A15040): 0.05 µg/mL (≈ 0.128 µM); MIC (N. gonorrheae A20154): 0.8 µg/mL (≈ 2.05 µM); MIC (H. influenzae A20177): 0.8 µg/mL (≈ 2.05 µM)
C/C=C\C1=C(C(=O)O)N2C(=O)C(NC(=O)[C@H](N)c3cccc(O)c3)[C@H]2SC1 (some centres unmarked) [BMY-28272, 7-[(D)-2-amino-2-(3-hydroxyphenyl)acetamido]-3-[(Z)-1-propenyl]-3-cephem-4-carboxylic acid]	0.4 (≈ 1.03 µM)	0.4 (≈ 1.03 µM)	0.8 (≈ 2.05 µM)	0.8 (≈ 2.05 µM)	0.05 (≈ 0.128 µM)	0.05 (≈ 0.128 µM)	0.8 (≈ 2.05 µM)	0.4 (≈ 1.03 µM)	0.8 (≈ 2.05 µM)	0.05 (≈ 0.128 µM)	0.1 (≈ 0.257 µM)	0.4 (≈ 1.03 µM)	0.1 (≈ 0.257 µM)	0.8 (≈ 2.05 µM)	0.1 (≈ 0.257 µM)	0.4 (≈ 1.03 µM)	0.4 (≈ 1.03 µM)	0.8 (≈ 2.05 µM)	0.8 (≈ 2.05 µM)	0.4 (≈ 1.03 µM)	MIC (H. influenzae A22483; A22483): 0.4 µg/mL (≈ 1.03 µM); MIC (H. influenzae A9729): 0.4 µg/mL (≈ 1.03 µM); MIC (H. influenzae A22482; A22482): 0.4 µg/mL (≈ 1.03 µM); MIC (S. pyogenes A9604): 0.05 µg/mL (≈ 0.128 µM); MIC (H. influenzae A22491): 0.8 µg/mL (≈ 2.05 µM); MIC (S. pyogenes A15040): 0.05 µg/mL (≈ 0.128 µM); MIC (N. gonorrheae A20154): 0.8 µg/mL (≈ 2.05 µM); MIC (H. influenzae A20177): 0.8 µg/mL (≈ 2.05 µM); activity relative to BMY-28100 (fastidious bacteria): almost comparable or better than BMY-28100; activity relative to cefaclor or cephalexin (fastidious bacteria): much better than cefaclor or cephalexin; effectiveness in vivo [1]: effectiveness of BMY-28272 in vivo is confirmed; activity relative to BMY-28100 [2]: slightly less active than BMY-28100; activity relative to cephalexin or cefaclor [2]: three times more active than cephalexin or cefaclor; activity relative to BMY-28100 [3]: same as BMY-28100; activity relative to cephalexin and cefaclor [3]: two or four times more active than cephalexin and cefaclor; PD50 (protective dose) (E. coli Juhl; im): 1.9; PD50 (protective dose) (E. coli Juhl; po): 2.6

Source: patent US4619925A, “3-Propenyl cephalosporin derivatives” (priority 1985, dated 1986)
